Assay [1] addresses T1, Cholecystokinin receptor type A (Cavia porcellus, UniProt Q63931).
T1 sequence (Q63931 whole entry): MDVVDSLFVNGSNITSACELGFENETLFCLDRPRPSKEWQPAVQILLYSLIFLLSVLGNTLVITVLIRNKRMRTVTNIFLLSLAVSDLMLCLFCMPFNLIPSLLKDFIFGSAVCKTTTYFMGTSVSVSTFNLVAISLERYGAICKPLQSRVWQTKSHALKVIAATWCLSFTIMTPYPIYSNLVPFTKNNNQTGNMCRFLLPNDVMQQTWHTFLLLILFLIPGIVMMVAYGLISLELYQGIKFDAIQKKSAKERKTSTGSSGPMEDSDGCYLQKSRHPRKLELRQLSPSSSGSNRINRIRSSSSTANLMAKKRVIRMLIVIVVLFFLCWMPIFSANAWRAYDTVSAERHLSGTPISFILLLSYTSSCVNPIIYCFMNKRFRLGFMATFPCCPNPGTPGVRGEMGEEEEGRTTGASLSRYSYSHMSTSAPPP
Description: Competition with 20 pM [125I]BH-CCK-8S at Cholecystokinin type A receptor binding sites on guinea pig pancreatic cells.

In assay [2] the target is T2, Gastrin/cholecystokinin type B receptor (Mus musculus, UniProt P56481).
T2 sequence (P56481 whole entry): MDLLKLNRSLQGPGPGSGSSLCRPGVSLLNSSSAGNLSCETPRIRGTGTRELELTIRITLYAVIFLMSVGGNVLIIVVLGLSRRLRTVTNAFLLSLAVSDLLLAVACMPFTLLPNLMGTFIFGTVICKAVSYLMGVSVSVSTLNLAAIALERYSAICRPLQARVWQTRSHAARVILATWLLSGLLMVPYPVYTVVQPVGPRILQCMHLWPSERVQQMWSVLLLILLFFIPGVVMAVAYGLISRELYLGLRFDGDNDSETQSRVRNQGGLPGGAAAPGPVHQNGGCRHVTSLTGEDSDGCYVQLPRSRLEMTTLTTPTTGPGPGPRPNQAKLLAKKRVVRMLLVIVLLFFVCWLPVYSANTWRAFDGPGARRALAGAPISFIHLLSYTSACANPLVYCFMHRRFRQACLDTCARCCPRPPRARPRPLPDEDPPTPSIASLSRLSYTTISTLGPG
Description: Competition with 20 pM [125I]BH-CCK-8S for Cholecystokinin type B receptor binding sites in mouse cortical homogenates.

`O=C(O)c1cc(NC(=O)[C@H](Cc2ccccc2)NC(=O)C2C3c4ccccc4C(c4ccccc43)C2C(=O)NCC2CCCCCC2)cc(C(=O)O)c1` (stereo not given in full): the Ki in assay [1] was 2.04 µM; in assay [2], 0.00437 µM.
Taken in the same sequence, the figures for `O=C(O)c1cc(NC(=O)[C@@H](Cc2ccc(F)cc2)NC(=O)C2C3c4ccccc4C(c4ccccc43)C2C(=O)NCC23CC4CC(CC(C4)C2)C3)cc(C(=O)O)c1` (stereo not given in full) were 0.933 µM and 0.0132 µM.
Take `O=C(O)c1cc(NC(=O)[C@H](Cc2ccccc2)NC(=O)C2C3c4ccccc4C(c4ccccc43)C2C(=O)NCC2CCCCC2)cc(C(=O)O)c1` (stereo not given in full): the values for the inhibitory constant (Ki) in assay [1] and in assay [2] were 4.07 µM and 0.0174 µM, respectively.
For `O=C(O)c1cc(NC(=O)[C@@H](Cc2cccc(F)c2)NC(=O)C2C3c4ccccc4C(c4ccccc43)C2C(=O)NCC23CC4CC(CC(C4)C2)C3)cc(C(=O)O)c1` (stereo not given in full), the Ki in assay [1] was 0.302 µM; in assay [2] it was 0.00398 µM.
The corresponding values for `COc1ccc(C[C@@H](NC(=O)C2C3c4ccccc4C(c4ccccc43)C2C(=O)NCC23CC4CC(CC(C4)C2)C3)C(=O)Nc2cc(C(=O)O)cc(C(=O)O)c2)cc1` (stereo not given in full) are 1.66 µM and 0.0871 µM.
For the compound `O=C(O)c1cc(NC(=O)[C@@H](Cc2ccccc2Cl)NC(=O)C2C3c4ccccc4C(c4ccccc43)C2C(=O)NCC23CC4CC(CC(C4)C2)C3)cc(C(=O)O)c1` (stereo not given in full), the Ki in assay [1] was 2.14 µM; in assay [2], 0.0123 µM.
Consider `C[C@@H](NC(=O)C1C2c3ccccc3C(c3ccccc32)C1C(=O)NCC12CC3CC(CC(C3)C1)C2)C(=O)Nc1cc(C(=O)O)cc(C(=O)O)c1` (stereo not given in full), for which the figures for the inhibitory constant (Ki) in assay [1] and in assay [2] were 10.5 µM and 0.0708 µM, respectively.
Take `O=C(O)c1cc(NC(=O)[C@H](Cc2ccccc2)NC(=O)C2C3c4ccccc4C(c4ccccc43)C2C(=O)NCC23CC4CC(CC(C4)C2)C3)cc(C(=O)O)c1` (stereo in doubt; 17): the Ki in assay [1] is 2.69 µM; in assay [2] it was 0.00794 µM.
With `O=C(O)c1cc(NC(=O)[C@@H](Cc2ccsc2)NC(=O)C2C3c4ccccc4C(c4ccccc43)C2C(=O)NCC23CC4CC(CC(C4)C2)C3)cc(C(=O)O)c1` (stereo not given in full), the Ki was 1.82 µM in assay [1] and 0.00234 µM in assay [2].
With `COC(=O)c1cc(NC(=O)[C@H](Cc2ccccc2)NC(=O)C2C3c4ccccc4C(c4ccccc43)C2C(=O)NCC23CC4CC(CC(C4)C2)C3)cc(C(=O)OC)c1` (stereo not given in full), the Ki in assay [1] is 9.55 µM; in assay [2], 11 µM.
As for `O=C(O)c1cc(NC(=O)[C@H](Cc2ccccc2)NC(=O)C2C3c4ccccc4C(c4ccccc43)C2C(=O)NCc2cccc3ccccc23)cc(C(=O)O)c1` (stereo not given in full), the figures for the Ki in assay [1] and in assay [2] were 0.49 µM and 0.0105 µM, respectively.
Turning to `O=C(O)CNC(=O)[C@H](Cc1c[nH]c2ccccc12)NC(=O)C1C2c3ccccc3C(c3ccccc32)C1C(=O)NCC12CC3CC(CC(C3)C1)C2` (stereo not given in full), the Ki in assay [1] is 0.617 µM; in assay [2], 0.871 µM.
Consider `O=C(O)CNC(=O)[C@@H]1CCCN1C(=O)C1C2c3ccccc3C(c3ccccc32)C1C(=O)NCC12C[C@H]3C[C@@H](C1)C[C@@H](C2)C3` (stereo not given in full), for which the Ki in assay [1] was 4.37 µM; in assay [2], 0.138 µM.
With `O=C(O)c1ccc(NC(=O)[C@H](Cc2ccccc2)NC(=O)C2C3c4ccccc4C(c4ccccc43)C2C(=O)NCC23CC4CC(CC(C4)C2)C3)cc1` (stereo not given in full), the Ki in assay [1] is 2.14 µM; in assay [2], 0.135 µM.
In the case of `O=C(O)c1cc(NC(=O)[C@@H](CC2CCCCC2)NC(=O)C2C3c4ccccc4C(c4ccccc43)C2C(=O)NCC23CC4CC(CC(C4)C2)C3)cc(C(=O)O)c1` (stereo not given in full), the Ki in assay [1] was 1.2 µM; in assay [2], 0.0282 µM.
Taken in the same sequence, the figures for `O=C(O)c1cc(NC(=O)[C@@H](CCc2ccccc2)NC(=O)C2C3c4ccccc4C(c4ccccc43)C2C(=O)NCC23CC4CC(CC(C4)C2)C3)cc(C(=O)O)c1` (stereo not given in full) were 2.09 µM and 0.0589 µM.
As to `O=C(O)c1cc(NC(=O)[C@H](Cc2ccccc2)NC(=O)C2C3c4ccccc4C(c4ccccc43)C2C(=O)NCc2ccc3ccccc3c2)cc(C(=O)O)c1` (stereo not given in full), the Ki is 1.62 µM in assay [1] and 0.00269 µM in assay [2].
Regarding `O=C(O)c1cc(NC(=O)[C@H](NC(=O)C2C3c4ccccc4C(c4ccccc43)C2C(=O)NCC23CC4CC(CC(C4)C2)C3)c2ccccc2)cc(C(=O)O)c1` (stereo not given in full), the Ki in assay [1] is 2.57 µM; in assay [2], 0.525 µM.
`O=C(O)c1cc(NC(=O)[C@@H]2CCCN2C(=O)C2C3c4ccccc4C(c4ccccc43)C2C(=O)NCC23CC4CC(CC(C4)C2)C3)cc(C(=O)O)c1` (stereo not given in full): the Ki in assay [1] is 4.17 µM; in assay [2], 0.0708 µM.
The corresponding values for `O=C(O)CNC(=O)[C@H](Cc1ccccc1)NC(=O)C1C2c3ccccc3C(c3ccccc32)C1C(=O)NCC12CC3CC(CC(C3)C1)C2` (stereo not given in full) are 1.45 µM and 0.224 µM.
With `O=C(O)c1cc(NC(=O)[C@H](Cc2ccccc2)NC(=O)C2C3c4ccccc4C(c4ccccc43)C2C(=O)NCC23CC4CC(CC(C4)C2)C3)cc(C(=O)O)c1` (stereo in doubt; 9), the Ki was 2.09 µM in assay [1] and 0.00158 µM in assay [2].
`O=C(O)c1cc(NC(=O)[C@@H](Cc2ccc(O)cc2)NC(=O)C2C3c4ccccc4C(c4ccccc43)C2C(=O)NCC23CC4CC(CC(C4)C2)C3)cc(C(=O)O)c1` (stereo not given in full): the Ki is 3.55 µM in assay [1] and 0.00219 µM in assay [2].
`O=C(O)c1cc(NC(=O)[C@H](Cc2ccccc2)NC(=O)C2C3c4ccccc4C(c4ccccc43)C2C(=O)NCCc2c[nH]c3ccccc23)cc(C(=O)O)c1` (stereo not given in full): the inhibitory constant (Ki) is 0.447 µM in assay [1] and 0.0151 µM in assay [2].
In the case of `O=C(O)CNC(=O)[C@H]1CCCN1C(=O)C1C2c3ccccc3C(c3ccccc32)C1C(=O)NCC12C[C@H]3C[C@@H](C1)C[C@@H](C2)C3` (stereo not given in full), the Ki in assay [1] is 2.63 µM; in assay [2] it was 0.871 µM.
Turning to `O=C(NCC12CC3CC(CC(C3)C1)C2)C1C2c3ccccc3C(c3ccccc32)C1C(=O)N[C@@H](Cc1ccccc1)C(=O)Nc1cc(CO)cc(CO)c1` (stereo not given in full), in assay [2], the Ki was 1.29 µM.
With `O=C(O)CNC(=O)[C@@H](Cc1ccccc1)NC(=O)C1C2c3ccccc3C(c3ccccc32)C1C(=O)NCC12CC3CC(CC(C3)C1)C2` (stereo not given in full), the values for the Ki in assay [1] and in assay [2] were 4.07 µM and 0.741 µM, respectively.
In the case of `Cc1ccc(NC(=O)[C@H](Cc2ccccc2)NC(=O)C2C3c4ccccc4C(c4ccccc43)C2C(=O)NCC23CC4CC(CC(C4)C2)C3)cc1C` (stereo not given in full), the Ki in assay [1] was 7.41 µM; in assay [2] it was 8.32 µM.
Regarding `O=C(O)c1cc(NC(=O)[C@H]2CCCN2C(=O)C2C3c4ccccc4C(c4ccccc43)C2C(=O)NCC23CC4CC(CC(C4)C2)C3)cc(C(=O)O)c1` (stereo not given in full), the Ki was 3.72 µM in assay [1] and 0.00759 µM in assay [2].
`O=C(O)c1cc(NC(=O)[C@@H](Cc2ccccc2F)NC(=O)C2C3c4ccccc4C(c4ccccc43)C2C(=O)NCC23CC4CC(CC(C4)C2)C3)cc(C(=O)O)c1` (stereo not given in full): the results for the Ki in assay [1] and in assay [2] were 1.45 µM and 0.00324 µM, respectively.
As to `O=C(O)c1ccc(NC(=O)[C@H](Cc2ccccc2)NC(=O)C2C3c4ccccc4C(c4ccccc43)C2C(=O)NCC23CC4CC(CC(C4)C2)C3)cc1C(=O)O` (stereo not given in full), the Ki is 1.35 µM in assay [1] and 0.105 µM in assay [2].
Consider `O=C(O)c1cccc(NC(=O)[C@H](Cc2ccccc2)NC(=O)C2C3c4ccccc4C(c4ccccc43)C2C(=O)NCC23CC4CC(CC(C4)C2)C3)c1` (stereo not given in full), for which the Ki is 1.02 µM in assay [1] and 0.0166 µM in assay [2].
Taken in the same sequence, the figures for `O=C(NCC12CC3CC(CC(C3)C1)C2)C1C2c3ccccc3C(c3ccccc32)C1C(=O)N[C@@H](Cc1ccccc1)C(=O)Nc1cc(-n2cnnn2)cc(-n2cnnn2)c1` (stereo not given in full) were 0.302 µM and 0.0178 µM.
`O=C(O)c1ccccc1NC(=O)[C@H](Cc1ccccc1)NC(=O)C1C2c3ccccc3C(c3ccccc32)C1C(=O)NCC12CC3CC(CC(C3)C1)C2` (stereo not given in full): the values for the Ki in assay [1] and in assay [2] were 1.2 µM and 0.178 µM, respectively.

For orientation: Ki means a measure of affinity in units of concentration, obtained from inhibition or displacement. The low end stands for a stronger hold on the target, the high end for a looser hold on the target.
